In patent US6011008A, “Conjugates of biologically active substances” (priority 1998, dated 2000):

Assays:
[1] = In vitro release (dialysis tubing method); assay type: physicochemical; details: for release of the conjugated drug: after 24 hours, buffer pH 7.4 at 37° C.; for drug released from the dialysis tube: after 5 hours, buffer pH 7.4, 37° C.
Protocol: A solution of the Schiff base or the amine conjugates (100 mg in 5 ml phosphate buffer pH7.4) was placed into a cellulose dialysis tubing of 12,000 MW cut off and the bag was placed into a 100 ml. buffer solution at 37° C. The drug release to the solution was monitored by UV absorption at 280 nm, unless otherwise indicated.
The release of DOX from the AG conjugates was determined using dialysis tubing as described above. The DOX-AG imine conjugate, the DOX-AG amine conjugate and a solution of the native drug were studied. The amount of DOX found in the solution was 2, 5, 8, 10 and 12% of the total dose after 2, 4, 7, 12 and 32 hours, respectively.
The Mitomycin release into the solution was measured as described above. The amount of drug found in the solution was 1, 2, 4, 5 and 8% of the total dose after 2, 4, 7, 12 and 32 hours, respectively.
In vitro release of Somatostatin was determined as described in the Methods and the somatostatin concentration was determined by the Folin-Lowry method for peptide analysis^(10).
Insulin was conjugated to oxidized AG (50 mg with 100 mg pure oxidized AG) using the method described above for somatostatin. The conjugation yield was about 75% as determined by nitrogen analysis and the Folin-Lowry method. The Schiff base derivative released about 25% of its drug content after 24 hours in phosphate buffer solution at […].

Staphylococcus Aureus = experiment: Antimicrobial activity, filter paper on seeded agar plate; assay type: cell-based; details: Staphylococcus Aureus (10^5 /ml), 24 hours at 37° C., 6 mm filter paper, equivalent amounts of the drug
Protocol: (§1) The antimicrobial activity of these conjugates was determined as described above. Saline solutions of equivalent amounts of the drug in free form or the imine or amine AG conjugates were absorbed onto a circular filter paper (6 mm in diameter) and placed on a seeded agar plate with Staphylococcus Aureus (10^5 /ml) and E. Coli incubated for 24 hours at 37° C. […] Similar results were obtained for the Polymyxin derivatives.

E. Coli = experiment: as above; assay type: cell-based; details: 24 hours at 37° C., 6 mm filter paper, equivalent amounts of the drug
Protocol: as §1

Escherichia coli = Escherichia coli agar plates, after 24 hours of incubation
Protocol: The antimicrobial activity of the conjugates was assayed by a cup method^(9) (agar plate method) using Escherichia coli agar plates and measuring the zone of growth inhibition.

**Q.** For “Somatostatin-AG amine conjugate: Somatostatin-AG Schiff base hydrogenated to the amine conjugate using NaBH4”, which “release of the conjugated drug” value [1] is on record?
**A.** The value was “did not release any”.

**Q.** Which results are given for gentamicin?
**A.** inhibition zone (Staphylococcus Aureus): > 10 mm; inhibition zone (E. Coli): > 10 mm

**Q.** With CO[C@@]12[C@H](COC(N)=O)C3=C(C(=O)C(C)=C(N)C3=O)N1C[C@@H]1N[C@@H]12 [Mitomycin C] as the compound, how does the inhibition zone (Escherichia coli) read?
**A.** The inhibition zone was over 10 mm.

**Q.** With NC[C@H]1O[C@H](O[C@H]2[C@H](O)[C@@H](O[C@H]3O[C@H](CO)[C@@H](O)[C@H](N)[C@H]3O)[C@H](N)C[C@@H]2N)[C@H](N)C[C@@H]1O [tobramicin] as the compound, how does the inhibition zone (Staphylococcus Aureus) read?
**A.** The inhibition zone was over 10 mm.

**Q.** And the inhibition zone (E. Coli)?
**A.** Its inhibition zone is over 10 mm.

**Q.** For “Somatostatin-AG imine conjugate: Somatostatin conjugated to pure oxidized AG via imine bond”, which “drug released from the dialysis tube” value [1] is on record?
**A.** The value was “about 5%”.

**Q.** And the “release of the conjugated drug” value [1]?
**A.** Its value is about 18%.

**Q.** With COc1cccc2c1C(=O)c1c(O)c3c(c(O)c1C2=O)C[C@@](O)(C(=O)CO)C[C@@H]3O[C@H]1C[C@H](N)[C@H](O)[C@H](C)O1 [DOX, Doxorubicin] as the compound, how does the “drug released from the dialysis tube” value [1] read?
**A.** The value was 90%.

**Q.** For “Insulin-AG Schiff base derivative: Insulin conjugated to pure oxidized AG, Schiff base”, which “release of drug content” value ([1]; after 24 hours in phosphate buffer solution at […].) is on record?
**A.** The value was “about 25%”.
